Laboratory results: US20210169959A1, “TERMINALIA FERDINANDIANA EXTRACT AND PRODUCTS CONTAINING EXTRACT OF TERMINALIA FERDINANDIANA FOR ANTIMICROBIAL OR ANTIBACTERIAL APPLICATIONS” (RISING PHOENIX INDUSTRIES PTY LTD, priority 2017, published 2021)
In brackets after ≈: the same amount, converted by molar mass. Several values for one entry are separate records, joined by “and”; a condition that tells them apart may be missing. Equal entries are not always repeated. Where two headings read alike, the source gives them in different places.

Key:
[1] = tested on: Giardia duodenalis trophozoites; assay: G. duodenalis trophozoite proliferation (strain not specified or several strains together); type: cell-based; conditions: for inhibition at 300 µg/mL: Giardia duodenalis; for inhibition at 300 µg/mL / inhibition of trophozoite proliferation: pure compounds at 300 μg/mL; for IC50: compound alone, over the different strains
[2] = tested on: Giardia duodenalis trophozoites, sheep S2 strain; assay: G. duodenalis trophozoite proliferation, sheep S2 strain; conditions: for IC50 / IC50 Single Compound: compound alone; for Class of Interaction / ΣFIC50: in combination with ascorbic acid
[3] = tested on: Giardia duodenalis trophozoites, ATCC203333; assay: G. duodenalis trophozoite proliferation, ATCC203333 (metronidazole sensitive); conditions: for Class of Interaction / ΣFIC50: in combination with ascorbic acid
[4] = tested on: Giardia duodenalis trophozoites, ATCC PRA-251; assay: G. duodenalis trophozoite proliferation, ATCC PRA-251 (metronidazole resistant); conditions: for IC50: read-out: IC50 Single Compound; for inhibition of the metronidazole resistant strain (in words): pure compounds at 300 μg/mL; for Class of Interaction / ΣFIC50: in combination with ascorbic acid
Artemia nauplii = conditions: for Toxicity Compound Alone ALA: 24 hours exposure; for Toxicity Compound/ascorbic acid combination ALA: in combination with ascorbic acid
human dermal fibroblast = conditions: for Toxicity Compound/ascorbic acid combination HDF: in combination with ascorbic acid
Clostridium perfringens = assay: microbe, parasite or virus in culture; type: cell-based
Bacillus anthracis = assay: microbe, parasite or virus in culture; type: cell-based
[5] = tested on: Artemia franciscana nauplii; conditions: in vivo
[6] = metronidazole sensitive G. duodenalis strain
[7] = Giardia duodenalis, in Ovis aries, read-out: IC50 Single Compound, Sheep S2 Strain
[8] = Giardia duodenalis, ATCC203333, read-out: IC50 Single Compound
[9] = all three G. duodenalis strains
[10] = compound alone, 24 hours exposure
[11] = read-out: IC50 Single Compound, Sheep S2 Strain
[12] = read-out: IC50 Single Compound, ATCC203333, compound alone

Molecule	inhibition of trophozoite proliferation [1, 9]	Toxicity Compound Alone ALA (Artemia nauplii)	Toxicity Compound/ascorbic acid combination ALA (Artemia nauplii) [µg/mL]	Toxicity Compound Alone HDF (human dermal fibroblast; [10])	Toxicity Compound/ascorbic acid combination HDF (human dermal fibroblast) [µg/mL]	IC50 Single Compound ([2]; Sheep S2 Strain) [µg/mL]	Class of Interaction ([2]; Sheep S2 Strain)	ΣFIC50 ([2]; Sheep S2 Strain)	Class of Interaction ([3]; ATCC203333)	ΣFIC50 ([3]; ATCC203333)	Class of Interaction ([4]; ATCC PRA-251)	ΣFIC50 ([4]; ATCC PRA-251)	also measured
O=C1O[C@H]([C@@H](O)CO)C(O)=C1O [Ascorbic acid, ascorbic acid]													inhibition at 300 µg/mL [1, 6]: ~15%; IC50 [2, 7]: 1870 µg/mL and 10.6 mM; IC50 [3, 8]: 1910 µg/mL and 10.8 mM; IC50 ([4]; Giardia duodenalis): 2850 µg/mL and 16.2 mM; inhibition of the metronidazole resistant strain (in words) [4]: ineffective inhibitors
O=C(O)C[C@H](C(=O)O)[C@H]1c2c(cc(O)c(O)c2O)C(=O)O[C@@H]1C(=O)O [Chebulic acid, chebulic acid]	~40%	165 µg/mL	224	380 µg/mL	375	1283 (≈ 3.6 mM)	Additive	0.56	Additive	0.6	Additive	0.52	IC50 [2, 11]: 3.6 mM; IC50 Single Compound ([3]; ATCC203333, compound alone): 985 µg/mL (≈ 2.76 mM); IC50 [3, 12]: 2.76 mM; IC50 Single Compound ([4]; ATCC PRA-251, compound alone): 1220 µg/mL (≈ 3.42 mM); IC50 ([4]; ATCC PRA-251, compound alone): 3.42 mM
O=C(O)[C@H]1O[C@@H](Oc2cccc(O)c2O)[C@H](O)[C@@H](O)[C@@H]1O [DPGA, 2,3-dihydroxyphenyl B-D-glucopyranosiduronic acid]	100%	CND	>500	CND	>500	47 (≈ 0.156 mM)	Synergy	0.11	Synergy	0.18	Synergy	0.18	ratios producing synergistic inhibition (isobologram) ([1]; DPGA:ascorbic acid combinations, metronidazole sensitive strains): ≤ 60 % DPGA; IC50 as share of the IC50 of ascorbic acid ([1]; components tested separately): approximately 5%; potency relative to ascorbic acid ([1]; components tested separately): ~20 times; IC50 [1]: 38 to 72 µg/mL; IC50 ([1]; read-out: IC50): ≥ 0.126 mM and 0.126 to 0.238 mM; IC50 [2, 11]: 0.156 mM; IC50 Single Compound ([3]; ATCC203333, compound alone): 38 µg/mL (≈ 0.126 mM); IC50 [3, 12]: 0.126 mM; IC50 Single Compound ([4]; ATCC PRA-251, compound alone): 72 µg/mL (≈ 0.238 mM); ratios with synergistic interaction (isobologram) ([4]; DPGA:ascorbic acid combinations, metronidazole resistant strain): 30-50 % DPGA; IC50 ([4]; ATCC PRA-251, compound alone): 0.238 mM
O=C(O)c1cc(O)c(O)c(O)c1 [Gallic acid, gallic acid]		132 µg/mL	147			1156 (≈ 6.8 mM)	Synergy	0.15	Synergy	0.38	Synergy	0.32	inhibition at 300 µg/mL [1, 9]: ~50%; ratios inducing synergistic responses (isobologram) ([1]; gallic acid:ascorbic acid combinations, all three strains): 30-60 % gallic acid; Toxicity Compound Alone HDF (human dermal fibroblast; human, 24 h): 320 µg/mL; IC50 [2, 7]: 1150 µg/mL and 6.79 mM; IC50 [3, 8]: 1370 µg/mL and 8.04 mM; IC50 ([4]; Giardia duodenalis): 1260 µg/mL and 7.38 mM
O=C1O[C@@H]([C@H](O)[C@H](O)CO)[C@@H](O)[C@H]1O [Glucohepatonic acid lactone, glucohepatonic acid-1,4-lactone]		CND	>500	CND	>500	1746 (≈ 8.39 mM)	independent (independent (ΣFIC50 > 1.0-4.0))	1.19	Independent	1.57	Independent	1.25	inhibition of trophozoite proliferation [1, 6]: ~30%; IC50 [2, 11]: 9.91 mM; IC50 Single Compound ([3]; ATCC203333, compound alone): 2255 µg/mL (≈ 10.8 mM); IC50 [3, 12]: 12.8 mM; IC50 Single Compound ([4]; ATCC PRA-251, compound alone): 3536 µg/mL (≈ 17 mM); inhibition of the metronidazole resistant strain (in words) [4]: ineffective inhibitors; IC50 ([4]; ATCC PRA-251, compound alone): 20.1 mM
O=C1O[C@H](CO)[C@@H](O)[C@H](O)[C@H]1O [Gluconolactone, gluconolactone]	did not significantly affect the growth	CND											Toxicity Compound Alone HDF (human dermal fibroblast): CND
Cc1cc(OCCCC(C)(C)C(=O)O)c(C)cc1O [HMDP, 5-(4-hydroxy-2,5-dimethylphenoxy)-2,2-dimethyl-pentanoic acid]		CND	>500	CND	>500		Additive	0.69	Additive	0.81	Independent	1.1	inhibition at 300 µg/mL [1, 9]: ~20%; IC50 [2, 7]: 1840 µg/mL and 6.89 mM; IC50 [3, 8]: 1580 µg/mL and 5.96 mM; IC50 ([4]; Giardia duodenalis): 2030 µg/mL and 7.63 mM
c1ncc2[nH]cnc2n1 [Purine, purine]	did not significantly affect the growth	CND											Toxicity Compound Alone HDF (human dermal fibroblast): CND
O=C(O)[C@]1(O)C[C@@H](O)[C@@H](O)[C@H](O)C1 [Quinic acid, quinic acid]		CND	>500				Additive	0.51	Additive	0.73	Additive	0.95	inhibition at 300 µg/mL [1, 9]: ~30%; Toxicity Compound Alone HDF (human dermal fibroblast): CND; IC50 [2, 7]: 1170 µg/mL and 6.1 mM; IC50 [3, 8]: 1430 µg/mL and 7.43 mM; IC50 ([4]; Giardia duodenalis): 1760 µg/mL and 9.13 mM
O=C1O[C@H](CO)[C@@H](O)[C@H]1O [Ribolactone, ribonolactone]	did not significantly affect the growth	CND		CND									
CC1(C)S[C@@H]2[C@H](NC(=O)[C@H](N)c3ccccc3)C(=O)N2[C@H]1C(=O)O [ampicillin]													zone of inhibition at 10 µg/disc (Clostridium perfringens; Clostridium perfringens, read-out: zones of inhibition): 13 ± 1 mm; zone of inhibition at 10 µg/disc (Bacillus anthracis; Bacillus anthracis, read-out: zones of inhibition): 10 ± 0.7 mm
[K+].[K+].[O]=[Cr](=[O])([O-])[O][Cr](=[O])(=[O])[O-] [potassium dichromate, Potassium dichromate, reference compound]		37 µg/mL		42 µg/mL									mortality [5]: 100%; onset of nauplii death (time of exposure) [5]: ≤ 3 h
eujavonic acid	~20%	CND	>500	CND	>500	1438	Additive	0.58	Additive	0.64	Additive	0.72	IC50 [2, 11]: 6.04 mM; IC50 Single Compound ([3]; ATCC203333, compound alone): 1683 µg/mL; IC50 [3, 12]: 7.07 mM; IC50 Single Compound ([4]; ATCC PRA-251, compound alone): 1850 µg/mL; IC50 ([4]; ATCC PRA-251, compound alone): 7.77 mM
penicillin													zones of inhibition (Clostridium perfringens; 10 μL extract per 6 mm disc, penicillin 2 μg, ampicillin 10 μg, mean ± SEM): 12.3±0.3 mm; zones of inhibition (Bacillus anthracis; 10 μL extract per 5 mm disc, penicillin 2 μg, ampicillin 10 μg, mean ± SEM): 8.3±0.6 mm
